Where a SMILES comes first, the peptide text is derived from it. The star is where a group is joined. Cbz = O=C(OCc1ccccc1)*; CH2F = FC*
Legend:
Assay type in all cases: cell-based, mice
RIPK1 = RIPK1 cleavage in BMDC by immunoblot
Experimental: Day 7 BMDC were lysed in Tris-buffer containing Complete Protease Inhibitor (Roche), 0.2% NP-40 (Roche), and biotin-VAD-fmk (10 μM, MP Biomedicals, Santa Ana, Calif.). Insoluble cell fragments were removed by centrifugation, and the protein concentration of the resulting whole cell lysates was determined by Bradford assay (BioRad, Hercules, Calif.). Whole cell lysates (30 μg per lane) were separated by SDS-PAGE. Precipitation of active caspases was performed by rocking 600 μg of whole cell lysates initially with sepharose 4B beads (Sigma) at 4° C. for 2 hours to remove nonspecific binding of proteins to the beads, followed by overnight rocking incubation with streptavidin-conjugated sepharose beads (Invitrogen) at 4° C. Release of biotin-VAD-fmk-labeled caspases from the streptavidin beads was achieved by heating to 95° C. for 10 min in Laemmli buffer. After gel electrophoresis, proteins were transferred to PVDF membranes (0.2 μm pore size, Bio-Rad), and immunoblots were performed using antibodies (1 μg/ml) against caspase-3, caspase-8 (both Cell Signaling, Danvers, Mass.), caspase-9 (Stressgen, Farmingdale, N.Y.), and RIPK1 (BD Biosciences).

BMDC = test: Cytokine production by Borrelia-stimulated BMDC (Bio-Plex); conditions: zVAD, 20 h
Experimental: (§1) The preparation of bone marrow-derived dendritic cells (BMDC) was done according to the method of Lutz et al. (26) using GM-CSF ([…] PeproTech, Rocky Hill N.J.) or GM-CSF plus IL-4 (10 μg/ml, PeproTech). Cells were used on day 7.
(§2) Day 7 γδ T cells and BMDC were cultured either individually or together at a 1:1 ratio (10^6 cells/ml each). To some cultures the following reagents were added: a sonicate of Borrelia burgdorferi (10 μg/ml), zVAD-fmk (MP Biomedical, Santa Ana Calif.) at the doses indicated, necrostatin (50 μM, R&D Systems, Minneapolis, Minn.), anti-TNF-α (10 μg/ml, Calbiochem, Darnstadt, Germany),, anti-IL-1 Receptor antagonist, Anakinra (200 ng/ml, Amgen, Thousand Oaks, Calif.), anti-IL-12 (10 μg/ml, BioLegend San Diego, Calif.), anti-IL-18 (10 μg/ml, MBL, Woburn Mass.), or rat IgG (10 μg/ml Jackson Immunoresearch, West Grove Pa.). Transwell assays were performed using 1×10^6 γδ T cells in 1 ml of complete medium+IL-2 placed in the lower chamber, with 5×10^5 DC in 100 μl placed in the upper chamber. […]
(§3) Cytokine levels of IFN-γ, IL-1β, IL-12p40, IL-12p70, IL-17, and TNF-α were detected using the Bio-Plex, MilliPlex, or Luminex immunoassay (Bio-Rad; Millipore-EMD; R&D Systems, Minneapolis, Minn.) according to the manufacturer's protocol. Briefly, samples were run undiluted or diluted 1:10 in RPMI complete media. 50 μl of the magnetic bead working solution was added to each well, then 50 μl of appropriate samples or standards were then added to wells and incubated at room temperature for 30-120 min at 800 rpm on an IKA MS 3 digital shaker. After three washes with 100 μl Bio-Plex wash buffer, incubation with 25 μl of detection antibody solution was done at room temperature for 30-60 min on the shaker. Following another set of three washes, 50 μl of streptavidin-phycoerythrin (PE) in assay buffer was added to each well and incubated as described for the previous step. After an additional three washes, 125 μl of assay buffer was added. Sample data was analyzed with Bio-Plex Manager software.

CD4 OT-II T cells = test: OT-II αβ T cell cultures with DC and OVAp; conditions: OVAp + DC treated with zVAD (50 μM)
Experimental: C57BL/6 OT-II mice contain CD4^+ T cells that respond to ovalbumin peptide (OVAp) 323-339 in the context of I-A^b (27). OT-II T cells were cultured with C57BL/6 DC at a 1:1 ratio in the presence of OVAp (10 μg/ml) with or without zVAD (50 μM). Supernatants were collected after 20 h and analyzed for production of IFN-γ and IL-17 by Bio-Plex.

γδ T cells = test: Mixed cultures of γδ T cells and BMDC: γδ T cell activation (IL-17, IFN-γ, CD25)
Experimental: Cells were washed three times and then rocked with goat anti-rat conjugated magnetic beads at a 10:1 ratio of beads to cell at 4° C. for 45 min. Magnetic depletion was used to remove bead-bound cells. […] After 2 days, cells were removed from anti-TCR-γδ stimulation, supplied with fresh medium plus IL-2, and returned to culture at a density of 0.3×10^6 cells/ml. Cells were counted daily and supplied with fresh media containing 50 units/ml IL-2. […] In addition, in some experiments freshly isolated splenic γδ T cells were prepared using anti-γδ-coated magnetic beads (Miltenyi Biotec) and magnet purification.
as §1, §2, §3
The following monoclonal antibodies to murine cell surface molecules were purchased from BioLegend: PE-conjugated anti-CD25, APC-conjugated anti-TCR-γδ, and TNF-α neutralizing antibody. Rat IgG was purchased from Jackson Immunoresearch (West Grove, Pa.). For direct staining, single cell suspensions (1×10^6 total cells per staining condition) were washed with cold (4° C.) PBS containing 1% (w/v) BSA fraction V (Sigma) (PBS/1% BSA), incubated with unconjugated rat IgG (50 μg/ml) for 15 min at 4° C., washed again, and then incubated with the appropriate antibodies in PBS/1% BSA. After washing, the cells were fixed with freshly made 1% (v/v) methanol-free formaldehyde (Ted Pella Inc., Redding, Calif.) in PBS/1% BSA.

[1] = cultured γδ T cells + zVAD-treated BMDC, presence of B. burgdorferi, zVAD 50 μM, 20 h
[2] = freshly isolated splenic γδ T cells + zVAD-treated DC + Borrelia
[3] = freshly isolated splenic γδ T cells + zVAD-treated DC, absence of Borrelia
[4] = zVAD-treated BMDC, absence of Borrelia

**Q.** With `CC(C)[C@H](NC(=O)OCc1ccccc1)C(=O)N[C@@H](C)C(=O)N[C@@H](CC(=O)O)C(=O)CF` [zVAD, N-benzyloxycarbonyl-Val-Ala-Asp-fluoromethyl ketone] (Cbz-Val-Ala-Asp-CH2F) as the compound, how does the “cleavage of RIPK1” value (RIPK1; BMDC cultured with GM-CSF only, zVAD) read?
**A.** Its value is “completely inhibited cleavage”.

**Q.** And the “cleavage of RIPK1” value (RIPK1; BMDC cultured with GM-CSF+IL-4, zVAD)?
**A.** Its value is “only partially inhibited”.

**Q.** And the “BMDC production of IL-1β” value (BMDC)?
**A.** The value was “completely inhibited”.

**Q.** What about the “BMDC production of TNF-α” value (BMDC) of the same compound?
**A.** Its value is “augmented”.

**Q.** And the “production of IL-12 p40 by BMDC” value (BMDC)?
**A.** Its value is “partially inhibited”.

**Q.** And the “production of IL-12 p70 by BMDC” value (BMDC)?
**A.** Its value is “partially inhibited”.

**Q.** And the “production of IFN-γ by OT-II T cells” value (CD4 OT-II T cells)?
**A.** The value was “considerably augmented”.

**Q.** And the “production of IL-17 by OT-II T cells” value (CD4 OT-II T cells)?
**A.** The value was “considerably augmented”.

**Q.** What about the “expression of surface CD25 on γδ T cells” value (γδ T cells; [1]) of the same compound?
**A.** Its value is “increased expression”.

**Q.** And the “production of IFN-γ by γδ T cells” value (γδ T cells; [1])?
**A.** Its value is “augmented production”.

**Q.** And the “production of IL-17 by γδ T cells” value (γδ T cells; [1])?
**A.** Its value is “augmented production”.

**Q.** And the “production of IFN-γ by fresh γδ T cells” value (γδ T cells; [2])?
**A.** Its value is “greatly augmented production”.

**Q.** What about the “production of IL-17 by fresh γδ T cells” value (γδ T cells; [2]) of the same compound?
**A.** The value was “greatly augmented production”.

**Q.** And the “production of IFN-γ by fresh γδ T cells” value (γδ T cells; [3])?
**A.** The value was “occurred even in the absence of Borrelia”.

**Q.** And the “production of IL-17 by fresh γδ T cells” value (γδ T cells; [3])?
**A.** The value was “occurred even in the absence of Borrelia”.

**Q.** And the “activation of γδ T cells in transwell assay” value (γδ T cells; no cell contact, BMDC+Borrelia+zVAD in upper chamber)?
**A.** Its value is “partial activation”.

**Q.** What about the “activation of γδ T cells by supernatants alone” value (γδ T cells; supernatants from cultures with BMDC+Borrelia+zVAD, no added BMDC or Borrelia) of the same compound?
**A.** Its value is “could augment activation”.

**Q.** What about the “production of IFNγ by γδ T cells” value (γδ T cells; [4]) of the same compound?
**A.** The value was “some production”.

**Q.** What about the “production of IL-17 by γδ T cells” value (γδ T cells; [4]) of the same compound?
**A.** Its value is “some production”.
